Converted amounts (≈) assume the structure as drawn. Counter-ions that a name gives are not always drawn.
What was measured:
[1] = Dynamic Vapor Sorption, physical stability to humidity; assay type: physicochemical; conditions: for physical stability (DVS): 50%-0%-90% RH
[2] = Solubility (at 25° C., 24 h equilibration); assay type: physicochemical; conditions: for solubility: 25° C., 24 h; for solubility / solubility at 24 h: target concentration 2 mg/mL; for solubility at 24 h: 25 °C, thermodynamic from solid
[3] = target: T1, wild-type ALK2 (aa172-499) (Homo sapiens (Human), UniProt Q04771); assay: Caliper biochemical peptide phosphorylation assay, ALK2; conditions: 15 μm ATP, 60 min at 30° C.; read-out: ALK2 EPK (IC50)
T1 sequence (Q04771 172-499): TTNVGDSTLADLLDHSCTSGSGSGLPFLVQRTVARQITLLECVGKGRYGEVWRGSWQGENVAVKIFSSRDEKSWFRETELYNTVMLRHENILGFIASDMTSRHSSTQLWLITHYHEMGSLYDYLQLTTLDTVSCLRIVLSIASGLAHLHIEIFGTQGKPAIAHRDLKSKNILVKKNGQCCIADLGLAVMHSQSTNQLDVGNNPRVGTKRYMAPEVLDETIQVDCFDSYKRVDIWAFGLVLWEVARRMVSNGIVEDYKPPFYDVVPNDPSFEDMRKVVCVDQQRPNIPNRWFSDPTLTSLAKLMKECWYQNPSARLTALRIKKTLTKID

[4] = target: ALK3 (aa198-525) (Homo sapiens (Human), UniProt P36894); assay: ADPGlo biochemical autophosphorylation assay, ALK3; conditions: 15 μm ATP, 60 min at 32° C.
Sequence of ALK3 (aa198-525) (P36894 198-525): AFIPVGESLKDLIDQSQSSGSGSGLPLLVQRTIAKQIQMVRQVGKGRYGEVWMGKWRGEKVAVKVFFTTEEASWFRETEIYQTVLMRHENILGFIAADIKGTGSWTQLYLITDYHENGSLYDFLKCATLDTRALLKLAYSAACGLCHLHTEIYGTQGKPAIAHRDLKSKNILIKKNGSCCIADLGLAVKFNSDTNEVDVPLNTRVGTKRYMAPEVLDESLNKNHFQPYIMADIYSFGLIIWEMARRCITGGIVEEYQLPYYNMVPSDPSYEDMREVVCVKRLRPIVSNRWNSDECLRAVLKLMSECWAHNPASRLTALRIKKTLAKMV

[5] = target: ALK5 (aa162-503) (Homo sapiens (Human), UniProt P36897); assay: Caliper biochemical peptide phosphorylation assay, ALK5; conditions: 15 μm ATP, 60 min at 30° C.; read-out: ALK5 EPK (IC50)
Sequence of ALK5 (aa162-503) (P36897 162-503): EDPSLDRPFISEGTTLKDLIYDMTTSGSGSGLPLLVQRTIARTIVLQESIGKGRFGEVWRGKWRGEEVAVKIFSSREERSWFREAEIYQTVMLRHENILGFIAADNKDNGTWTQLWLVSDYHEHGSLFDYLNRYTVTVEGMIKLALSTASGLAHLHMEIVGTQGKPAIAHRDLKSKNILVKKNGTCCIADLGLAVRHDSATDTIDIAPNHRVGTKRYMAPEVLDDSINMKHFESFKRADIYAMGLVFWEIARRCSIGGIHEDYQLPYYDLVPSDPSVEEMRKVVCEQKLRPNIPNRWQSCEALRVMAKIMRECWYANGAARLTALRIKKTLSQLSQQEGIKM

[6] = target: ALK1 (aa166-493) (Homo sapiens (Human), UniProt P37023); assay: Caliper biochemical peptide phosphorylation assay, ALK1; conditions: 15 μm ATP, 60 min at 30° C.; read-out: ALK1 EPK (IC50)
Sequence of ALK1 (aa166-493) (P37023 166-493): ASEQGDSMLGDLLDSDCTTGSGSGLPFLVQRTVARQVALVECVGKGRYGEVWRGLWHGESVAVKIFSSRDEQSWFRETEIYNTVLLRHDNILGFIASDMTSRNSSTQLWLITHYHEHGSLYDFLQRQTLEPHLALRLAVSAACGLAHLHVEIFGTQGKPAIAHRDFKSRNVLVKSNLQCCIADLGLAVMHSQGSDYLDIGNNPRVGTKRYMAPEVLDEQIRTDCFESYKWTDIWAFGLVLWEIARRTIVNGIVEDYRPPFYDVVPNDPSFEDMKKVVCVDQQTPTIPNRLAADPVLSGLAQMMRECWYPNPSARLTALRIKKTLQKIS

[7] = target: ALK6 (aa168-495) (Homo sapiens (Human), UniProt O00238); assay: Caliper biochemical peptide phosphorylation assay, ALK6; conditions: 15 μm ATP, 60 min at 30° C.; read-out: ALK6 EPK (IC50)
Sequence of ALK6 (aa168-495) (O00238 168-495): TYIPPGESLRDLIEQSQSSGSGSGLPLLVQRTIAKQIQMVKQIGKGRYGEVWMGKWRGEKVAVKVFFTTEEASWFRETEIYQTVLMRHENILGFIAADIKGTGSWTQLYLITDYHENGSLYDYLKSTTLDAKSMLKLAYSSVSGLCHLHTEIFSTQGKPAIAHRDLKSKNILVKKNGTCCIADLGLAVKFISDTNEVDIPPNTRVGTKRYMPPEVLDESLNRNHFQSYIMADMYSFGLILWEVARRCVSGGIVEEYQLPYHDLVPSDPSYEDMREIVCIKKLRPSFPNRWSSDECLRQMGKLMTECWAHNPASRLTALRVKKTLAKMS

[8] = target: T1, wild-type ALK2 (aa172-499); assay: ADPGlo biochemical autophosphorylation assay, ALK2; conditions: 15 μm ATP, 60 min at 32° C.
[9] = system: BMP response element (BRE) luciferase reporter in HuH7 cells, BMP6 stimulated; assay: BMP signaling reporter gene assay; assay type: cell-based; conditions: Homo sapiens, Huh-7; HuH7 BRE-luciferase, BMP6 100 ng/ml, 5 hours; read-out: MSD BMP RGA IC50

With Nc1ncc(-c2ccc([C@@]34C[C@@H]3CN(C3CCOCC3)C4)cc2)cc1C(=O)NC12CCC(O)(CC1)CC2 [Fumarate salt Modification HA, 2-amino-N-(4-hydroxybicyclo[2.2.2]octan-1-yl)-5-(4-((1R,5S)-3-(tetrahydro-2H-pyran-4-yl)-3-azabicyclo[3.1.0]hexan-1-yl)phenyl)nicotinamide] the “physical stability (DVS)” value ([1]; 25° C.) was “physically stable at least from 0% to 90% RH”, the “physical stability (DVS)” value ([1]; 40° C.) was “physically stable at least from 10% to 90% RH” and the “humidity range of stability compared with free form polymorphs” value ([1]; data not shown) was “stable over a wider humidity range than free form polymorphs”. For the same molecule, the solubility ([2]; Water/7.2) was >2000 µg/mL, the “solubility compared with free form Modification HA” value ([2]; aqueous buffers) was “better solubility than free form Modification HA in some aqueous buffers” and the solubility at 24 h ([2]; borate buffer, pH 9, aqueous buffer, pH 9.0 borate buffer/8.6, 24 h) was 30 µg/mL. For the same molecule, the solubility ([2]; pH 1.0 1N HCl/1.1) was >2000 µg/mL, the solubility ([2]; pH 2.0 HCl buffer 2.1) was >2000 µg/mL and the solubility ([2]; pH 2.0 SGF/2.0) was >2000 µg/mL. For the same molecule, the solubility ([2]; pH 4.7 acetate buffer/4.8) was >2000 µg/mL, the solubility ([2]; pH 5.8 FeSSIF/5.9) was >2000 µg/mL and the solubility ([2]; pH 6.5 FaSSIF/6.5) was 1690 µg/mL. It also gave a solubility ([2]; pH 6.8 phosphate buffer/6.8) of 1080 µg/mL.

In the case of Nc1ncc(-c2ccc([C@@]34C[C@@H]3CN(C3CCOCC3)C4)cc2)cc1C(=O)NC12CCC(O)(CC1)CC2 [Free form Modification HA, 2-amino-N-(4-hydroxybicyclo[2.2.2]octan-1-yl)-5-(4-((1R,5S)-3-(tetrahydro-2H-pyran-4-yl)-3-azabicyclo[3.1.0]hexan-1-yl)phenyl)nicotinamide], the solubility at 24 h ([2]; 1N HCl, pH 1, simulated gastric fluid, pH 1.0 1N HCl/1.1, 24 h) is reported as > 2000 µg/mL, the solubility at 24 h ([2]; FeSSIF, pH 5.8, fessif, pH 5.8 FeSSIF/5.9, 24 h) is reported as 1690 µg/mL (≈ 3.36 mM) and the solubility at 24 h ([2]; HCl buffer, pH 2, simulated gastric fluid, pH 2.0 HCl buffer 2.1, 24 h) is reported as > 2000 µg/mL. The solubility at 24 h ([2]; SGF, pH 2, simulated gastric fluid, pH 2.0 SGF/2.0, 24 h) was > 2000 µg/mL, the solubility ([2]; Water/7.2) was 70 µg/mL (≈ 0.139 mM) and the solubility at 24 h ([2]; acetate buffer, pH 4.7, aqueous buffer, pH 4.7 acetate buffer/4.8, 24 h) was > 2000 µg/mL. The solubility ([2]; pH 6.5 FaSSIF/6.5) was 470 µg/mL (≈ 0.935 mM), the solubility ([2]; pH 6.8 phosphate buffer/6.8) was 340 µg/mL (≈ 0.676 mM) and the solubility ([2]; pH 9.0 borate buffer/8.6) was “<LOQ”.

For CC(C)N1C[C@H]2C[C@@]2(c2ccc(-c3cnc(N)c(C(=O)N[C@H]4CC[C@H](O)CC4)c3)cc2)C1 [Example 2, 2-amino-N-((1r,4R)-4-hydroxycyclohexyl)-5-(4-((1R,5S)-3-isopropyl-3-azabicyclo[3.1.0]hexan-1-yl)phenyl)nicotinamide], the IC50 [3] was 11 nM, the IC50 [4] was 1770 nM and the IC50 [5] was 2170 nM. It also gave an IC50 [6] of 93 nM, an IC50 [7] of 2500 nM and an IC50 [8] of 12 nM. It also gave an IC50 [9] of 21 nM.

In the case of C[C@]1(O)CC[C@H](NC(=O)c2cc(-c3ccc([C@]45C[C@H]4CN(C4CCC(F)(F)CC4)C5)cc3)cnc2N)CC1 [Example 58, 2-amino-5-(4-((1S,5R)-3-(4,4-difluorocyclohexyl)-3-azabicyclo[3.1.0]hexan-1-yl)phenyl)-N-((1r,4S)-4-hydroxy-4-methylcyclohexyl)nicotinamide], the IC50 [3] is reported as 32 nM, the IC50 [4] is reported as 3720 nM and the IC50 [5] is reported as 7550 nM. For the same molecule, the IC50 [6] was 663 nM, the IC50 [7] was 8400 nM and the IC50 [8] was 25 nM. It also gave an IC50 [9] of 143 nM.

With Nc1ncc(-c2ccc([C@@]34C[C@@H]3CN(C3CCOCC3)C4)cc2)cc1C(=O)NC12CCC(O)(CC1)CC2 [Example 34, 2-amino-N-(4-hydroxybicyclo[2.2.2]octan-1-yl)-5-(4-((1R,5S)-3-(tetrahydro-2H-pyran-4-yl)-3-azabicyclo[3.1.0]hexan-1-yl)phenyl)nicotinamide] the IC50 [3] was 23 nM, the IC50 [4] was 914 nM and the IC50 [5] was 6280 nM. It also gave an IC50 [6] of 323 nM, an IC50 [7] of 3300 nM and an IC50 [8] of 18 nM. For the same molecule, the IC50 [9] was 49 nM.

Work on Nc1ncc(-c2ccc([C@@]34C[C@@H]3CN(CCN3CCOCC3)C4)cc2)cc1C(=O)N[C@H]1CC[C@H](O)CC1 [Example 10, 2-amino-N-((1r,4R)-4-hydroxycyclohexyl)-5-(4-((1R,5S)-3-(2-morpholinoethyl)-3-azabicyclo[3.1.0]hexan-1-yl)phenyl)nicotinamide] yielded an IC50 [3] of 11 nM, an IC50 [4] of 1400 nM and an IC50 [5] of 2600 nM. For the same molecule, the IC50 [6] was 89 nM, the IC50 [7] was 2500 nM and the IC50 [8] was 11 nM. The IC50 [9] was 61 nM.

With Nc1ncc(-c2ccc([C@@]34C[C@@H]3CN(CC(F)(F)F)C4)cc2)cc1C(=O)N[C@H]1CC[C@H](O)CC1 [Example 77, 2-amino-N-((1r,4R)-4-hydroxycyclohexyl)-5-(4-((1R,5S)-3-(2,2,2-trifluoroethyl)-3-azabicyclo[3.1.0]hexan-1-yl)phenyl)nicotinamide] the IC50 [3] was 80 nM, the IC50 [4] was 3300 nM and the IC50 [5] was 10000 nM. It also gave an IC50 [6] of 320 nM, an IC50 [7] of 8600 nM and an IC50 [8] of 28 nM. The IC50 [9] was 1300 nM.

For C[C@@H](c1ccc(-c2cnc(N)c(C(=O)N[C@H]3CC[C@H](O)CC3)c2)cc1)N1CC2(COC2)C1 [Example 4, 5-(4-((S)-1-(2-oxa-6-azaspiro[3.3]heptan-6-yl)ethyl)phenyl)-2-amino-N-((1r,4R)-4-hydroxycyclohexyl)nicotinamide], the IC50 [3] was 13 nM, the IC50 [4] was 830 nM and the IC50 [5] was 2450 nM. For the same molecule, the IC50 [6] was 175 nM, the IC50 [7] was 1850 nM and the IC50 [8] was 5 nM. The IC50 [9] was 108 nM.

CC(C)N1CCN(c2ccc(-c3cnc(N)c(C(=O)N[C@H]4CC[C@H](O)CC4)c3)c(F)c2)CC1 [Example 8, 2-amino-5-(2-fluoro-4-(4-isopropylpiperazin-1-yl)phenyl)-N-((1r,4r)-4-hydroxycyclohexyl)nicotinamide] gave an IC50 [3] of 12 nM, an IC50 [4] of 1900 nM and an IC50 [5] of 4000 nM. The IC50 [6] was 220 nM, the IC50 [7] was 5000 nM and the IC50 [8] was 13 nM. It also gave an IC50 [9] of 69 nM.

For Cc1cc(CN2CCC[C@H]2C)ccc1-c1cnc(N)c(C(=O)N[C@H]2CC[C@](C)(O)CC2)c1 [Example 87, 2-amino-N-((1r,4R)-4-hydroxy-4-methylcyclohexyl)-5-(2-methyl-4-(((R)-2-methylpyrrolidin-1-yl)methyl)phenyl)nicotinamide], the IC50 [3] was 630 nM, the IC50 [4] was 15100 nM and the IC50 [5] was 10000 nM. It also gave an IC50 [6] of 10000 nM, an IC50 [7] of 10000 nM and an IC50 [8] of 880 nM. The IC50 [9] was 3550 nM.
